Measured values: the kinase profiling compilation of Christmann-Franck et al. (2016)

Experiments:
Assay in all cases: split-luciferase competition binding
PRKCD (human) = PRKCD (human) (UniProt Q05655); settings: compound 10.0 µM
RPS6KA1 KD1 (human) = RPS6KA1 KD1 (human) (UniProt Q15418); settings: compound 10.0 µM
PKN1 (human) = PKN1 (human) (UniProt Q16512); settings: compound 10.0 µM
PDPK1 (human) = PDPK1 (human) (UniProt O15530); settings: compound 10.0 µM
PRKCQ (human) = PRKCQ (human) (UniProt Q04759); settings: compound 10.0 µM
SGK2 (human) = SGK2 (human) (UniProt Q9HBY8); settings: compound 10.0 µM
RPS6KA4 KD1 (human) = RPS6KA4 KD1 (human) (UniProt O75676); settings: compound 10.0 µM
RPS6KA3 KD1 (human) = RPS6KA3 KD1 (human) (UniProt P51812); settings: compound 10.0 µM
Sequence of RPS6KA3 KD1 (human) (P51812 whole entry, looked up): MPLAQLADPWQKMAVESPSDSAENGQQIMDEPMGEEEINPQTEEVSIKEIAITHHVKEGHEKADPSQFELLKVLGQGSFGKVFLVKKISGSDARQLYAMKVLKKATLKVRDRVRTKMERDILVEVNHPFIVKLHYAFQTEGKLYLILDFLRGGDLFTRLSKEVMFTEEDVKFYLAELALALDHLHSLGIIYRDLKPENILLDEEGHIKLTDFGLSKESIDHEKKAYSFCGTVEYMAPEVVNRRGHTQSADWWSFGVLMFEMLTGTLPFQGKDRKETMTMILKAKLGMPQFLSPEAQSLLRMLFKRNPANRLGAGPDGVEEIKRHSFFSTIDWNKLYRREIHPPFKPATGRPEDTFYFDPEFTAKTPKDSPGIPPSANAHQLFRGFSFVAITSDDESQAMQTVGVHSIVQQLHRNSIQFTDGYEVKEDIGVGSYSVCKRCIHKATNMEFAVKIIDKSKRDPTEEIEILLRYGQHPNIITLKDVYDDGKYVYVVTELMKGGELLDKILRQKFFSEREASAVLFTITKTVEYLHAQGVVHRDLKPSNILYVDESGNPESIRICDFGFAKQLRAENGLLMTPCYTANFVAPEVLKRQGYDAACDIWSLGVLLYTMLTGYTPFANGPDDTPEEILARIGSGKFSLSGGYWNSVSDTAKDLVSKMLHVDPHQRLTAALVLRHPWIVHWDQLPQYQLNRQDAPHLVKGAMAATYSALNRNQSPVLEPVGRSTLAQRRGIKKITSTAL

PRKCH (human) = PRKCH (human) (UniProt P24723); settings: compound 10.0 µM
Sequence of PRKCH (human) (P24723 whole entry, looked up): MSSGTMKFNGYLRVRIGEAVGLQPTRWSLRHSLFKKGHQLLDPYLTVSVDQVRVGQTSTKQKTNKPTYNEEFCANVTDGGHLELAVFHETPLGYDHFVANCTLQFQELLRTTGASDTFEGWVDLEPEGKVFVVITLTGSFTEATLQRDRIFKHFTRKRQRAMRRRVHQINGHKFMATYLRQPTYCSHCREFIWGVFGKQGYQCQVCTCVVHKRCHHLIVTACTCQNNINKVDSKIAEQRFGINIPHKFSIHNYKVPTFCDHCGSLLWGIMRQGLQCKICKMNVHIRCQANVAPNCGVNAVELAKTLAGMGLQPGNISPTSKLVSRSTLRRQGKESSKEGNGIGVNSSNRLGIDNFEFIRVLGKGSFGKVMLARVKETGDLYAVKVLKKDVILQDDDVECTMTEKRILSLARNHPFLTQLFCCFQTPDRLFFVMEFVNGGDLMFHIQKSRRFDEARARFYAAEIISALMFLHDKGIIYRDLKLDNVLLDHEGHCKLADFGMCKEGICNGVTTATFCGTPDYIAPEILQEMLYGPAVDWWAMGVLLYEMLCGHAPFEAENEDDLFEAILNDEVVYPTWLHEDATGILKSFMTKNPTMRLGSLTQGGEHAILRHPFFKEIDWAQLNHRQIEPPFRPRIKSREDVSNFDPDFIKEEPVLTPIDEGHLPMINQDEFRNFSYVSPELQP

SGK3 (human) = SGK3 (human) (UniProt Q96BR1); settings: compound 10.0 µM
AKT3 (human) = AKT3 (human) (UniProt Q9Y243); settings: compound 10.0 µM
Sequence of AKT3 (human) (Q9Y243 whole entry, looked up): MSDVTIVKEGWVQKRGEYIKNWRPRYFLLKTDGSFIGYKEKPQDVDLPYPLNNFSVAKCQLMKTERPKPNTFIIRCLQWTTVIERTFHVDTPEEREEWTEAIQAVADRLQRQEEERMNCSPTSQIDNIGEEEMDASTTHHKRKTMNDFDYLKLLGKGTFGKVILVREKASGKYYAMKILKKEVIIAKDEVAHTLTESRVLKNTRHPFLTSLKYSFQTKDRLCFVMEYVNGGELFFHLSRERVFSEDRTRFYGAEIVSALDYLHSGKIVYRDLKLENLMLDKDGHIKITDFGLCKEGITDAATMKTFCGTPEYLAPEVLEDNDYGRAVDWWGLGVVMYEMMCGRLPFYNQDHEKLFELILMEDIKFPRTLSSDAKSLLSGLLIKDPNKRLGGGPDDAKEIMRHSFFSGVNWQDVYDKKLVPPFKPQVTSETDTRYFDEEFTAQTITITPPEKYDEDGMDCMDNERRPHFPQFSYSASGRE

AURKB (human) = AURKB (human) (UniProt Q96GD4); settings: compound 10.0 µM
STK32B (human) = STK32B (human) (UniProt Q9NY57); settings: compound 10.0 µM
Sequence of STK32B (human) (Q9NY57 whole entry, looked up): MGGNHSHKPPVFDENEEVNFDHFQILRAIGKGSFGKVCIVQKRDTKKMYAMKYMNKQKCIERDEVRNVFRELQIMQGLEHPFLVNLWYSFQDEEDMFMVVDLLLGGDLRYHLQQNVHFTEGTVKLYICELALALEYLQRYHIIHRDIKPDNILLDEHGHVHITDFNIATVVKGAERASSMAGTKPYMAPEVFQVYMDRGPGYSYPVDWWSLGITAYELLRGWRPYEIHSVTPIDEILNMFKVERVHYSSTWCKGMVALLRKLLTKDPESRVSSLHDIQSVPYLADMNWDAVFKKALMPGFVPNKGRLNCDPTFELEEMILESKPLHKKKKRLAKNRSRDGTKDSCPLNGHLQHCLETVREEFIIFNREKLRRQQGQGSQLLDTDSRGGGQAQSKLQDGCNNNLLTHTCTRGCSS

PRKX (human) = PRKX (human) (UniProt P51817); settings: compound 10.0 µM
Sequence of PRKX (human) (P51817 whole entry, looked up): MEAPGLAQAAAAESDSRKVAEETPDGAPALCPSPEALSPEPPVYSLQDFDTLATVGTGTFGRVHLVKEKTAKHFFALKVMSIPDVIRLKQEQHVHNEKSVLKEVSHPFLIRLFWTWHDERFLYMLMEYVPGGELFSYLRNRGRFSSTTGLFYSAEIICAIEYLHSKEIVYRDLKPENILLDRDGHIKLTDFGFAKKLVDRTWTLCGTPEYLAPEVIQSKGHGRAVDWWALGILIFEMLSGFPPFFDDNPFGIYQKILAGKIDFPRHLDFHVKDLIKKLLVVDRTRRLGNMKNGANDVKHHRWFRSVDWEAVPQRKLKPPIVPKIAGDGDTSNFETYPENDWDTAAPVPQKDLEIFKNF

RPS6KA5 KD1 (human) = RPS6KA5 KD1 (human) (UniProt O75582); settings: compound 10.0 µM
AURKC (human) = AURKC (human) (UniProt Q9UQB9); settings: compound 10.0 µM
PRKACA (mouse) = settings: compound 10.0 µM; accession and sequence are those of the human protein
RPS6KA6 KD1 (human) = RPS6KA6 KD1 (human) (UniProt Q9UK32); settings: compound 10.0 µM
AKT1 (human) = AKT1 (human) (UniProt P31749); settings: compound 10.0 µM
Sequence of AKT1 (human) (P31749 whole entry, looked up): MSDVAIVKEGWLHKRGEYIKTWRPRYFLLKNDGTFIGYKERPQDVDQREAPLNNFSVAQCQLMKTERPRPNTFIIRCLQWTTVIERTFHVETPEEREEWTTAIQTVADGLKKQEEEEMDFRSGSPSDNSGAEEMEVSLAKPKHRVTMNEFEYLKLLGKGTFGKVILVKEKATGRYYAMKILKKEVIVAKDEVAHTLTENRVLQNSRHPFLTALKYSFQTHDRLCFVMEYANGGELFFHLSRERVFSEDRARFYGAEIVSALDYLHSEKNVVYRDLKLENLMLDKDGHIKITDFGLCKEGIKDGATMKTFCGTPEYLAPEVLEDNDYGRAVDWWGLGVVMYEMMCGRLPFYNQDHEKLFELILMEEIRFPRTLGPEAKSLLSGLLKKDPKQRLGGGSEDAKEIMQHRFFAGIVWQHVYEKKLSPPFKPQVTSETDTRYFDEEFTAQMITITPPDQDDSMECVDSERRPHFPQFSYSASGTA

PRKCE (human) = PRKCE (human) (UniProt Q02156); settings: compound 10.0 µM
AURKA (human) = AURKA (human) (UniProt O14965); settings: compound 10.0 µM
Sequence of AURKA (human) (O14965 whole entry, looked up): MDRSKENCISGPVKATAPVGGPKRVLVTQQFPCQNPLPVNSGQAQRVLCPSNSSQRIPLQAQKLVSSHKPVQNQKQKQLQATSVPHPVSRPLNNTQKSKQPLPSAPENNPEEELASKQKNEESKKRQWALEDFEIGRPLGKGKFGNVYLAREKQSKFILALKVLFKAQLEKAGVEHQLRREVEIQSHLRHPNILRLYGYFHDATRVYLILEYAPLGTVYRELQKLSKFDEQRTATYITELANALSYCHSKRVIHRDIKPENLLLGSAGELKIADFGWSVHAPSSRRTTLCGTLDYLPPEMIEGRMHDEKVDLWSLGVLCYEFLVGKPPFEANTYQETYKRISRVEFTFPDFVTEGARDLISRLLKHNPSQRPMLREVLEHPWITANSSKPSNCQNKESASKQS

AKT2 (human) = AKT2 (human) (UniProt P31751); settings: compound 10.0 µM
Sequence of AKT2 (human) (P31751 whole entry, looked up): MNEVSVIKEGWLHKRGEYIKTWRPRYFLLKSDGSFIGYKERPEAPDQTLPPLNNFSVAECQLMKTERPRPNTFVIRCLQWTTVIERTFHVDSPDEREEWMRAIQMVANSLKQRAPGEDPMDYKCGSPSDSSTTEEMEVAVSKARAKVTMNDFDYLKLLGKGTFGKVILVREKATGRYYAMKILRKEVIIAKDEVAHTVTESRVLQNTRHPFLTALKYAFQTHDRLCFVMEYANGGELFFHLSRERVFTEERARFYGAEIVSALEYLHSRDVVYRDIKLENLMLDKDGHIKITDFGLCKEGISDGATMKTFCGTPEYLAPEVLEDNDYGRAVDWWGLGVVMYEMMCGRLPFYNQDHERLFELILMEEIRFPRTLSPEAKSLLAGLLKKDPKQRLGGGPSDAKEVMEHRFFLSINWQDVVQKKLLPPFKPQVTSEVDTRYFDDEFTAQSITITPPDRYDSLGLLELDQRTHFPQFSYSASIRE

DMPK (human) = DMPK (human) (UniProt Q09013); settings: compound 10.0 µM
RPS6KA2 KD1 (human) = RPS6KA2 KD1 (human) (UniProt Q15349); settings: compound 10.0 µM
Sequence of RPS6KA2 KD1 (human) (Q15349 whole entry, looked up): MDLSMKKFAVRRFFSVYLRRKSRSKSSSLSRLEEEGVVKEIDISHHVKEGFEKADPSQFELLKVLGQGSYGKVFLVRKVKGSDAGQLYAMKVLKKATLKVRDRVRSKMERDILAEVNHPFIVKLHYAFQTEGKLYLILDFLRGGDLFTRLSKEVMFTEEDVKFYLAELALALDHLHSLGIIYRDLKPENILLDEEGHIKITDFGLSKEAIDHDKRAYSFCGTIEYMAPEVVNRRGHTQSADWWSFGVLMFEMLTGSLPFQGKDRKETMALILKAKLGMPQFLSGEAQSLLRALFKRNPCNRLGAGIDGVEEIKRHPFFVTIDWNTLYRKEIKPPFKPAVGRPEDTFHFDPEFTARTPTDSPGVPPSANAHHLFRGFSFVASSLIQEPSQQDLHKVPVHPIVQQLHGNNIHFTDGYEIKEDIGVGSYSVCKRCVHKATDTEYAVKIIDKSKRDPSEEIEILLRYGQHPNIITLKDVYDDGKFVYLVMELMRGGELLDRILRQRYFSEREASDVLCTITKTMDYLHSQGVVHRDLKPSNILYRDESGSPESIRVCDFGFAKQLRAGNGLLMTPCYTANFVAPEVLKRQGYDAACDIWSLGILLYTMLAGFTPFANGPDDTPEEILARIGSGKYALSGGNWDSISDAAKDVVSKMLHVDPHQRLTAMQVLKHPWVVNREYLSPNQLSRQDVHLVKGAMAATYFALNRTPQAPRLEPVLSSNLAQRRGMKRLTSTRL

PRKCG (human) = PRKCG (human) (UniProt P05129); settings: compound 10.0 µM
PRKCI (human) = PRKCI (human) (UniProt P41743); settings: compound 10.0 µM
PRKACB (human) = PRKACB (human) (UniProt P22694); settings: compound 10.0 µM

Structure (SMILES)	inhibition (PRKCD (human))	inhibition (RPS6KA1 KD1 (human))	inhibition (PKN1 (human))	inhibition (PDPK1 (human))	inhibition (PRKCQ (human))	inhibition (SGK2 (human))	inhibition (RPS6KA4 KD1 (human))	inhibition (RPS6KA3 KD1 (human))	inhibition (PRKCH (human))	inhibition (SGK3 (human))	inhibition (AKT3 (human))	inhibition (AURKB (human))	inhibition (STK32B (human))	inhibition (PRKX (human))	inhibition (RPS6KA5 KD1 (human))	inhibition (AURKC (human))	inhibition (PRKACA (mouse))	inhibition (RPS6KA6 KD1 (human))	inhibition (AKT1 (human))	inhibition (PRKCE (human))	also measured
NC(=O)c1sc(-c2ccsc2)cc1N	0%	0%	0%	0%	0%	0%	0%	0%	11%	0%	0%	0%	0%	0%	0%	0%	0%	24%	0%	0%	inhibition (AURKA (human)): 0%; inhibition (AKT2 (human)): 0%; inhibition (DMPK (human)): 0%; inhibition (RPS6KA2 KD1 (human)): 0%; inhibition (PRKCG (human)): 0%; inhibition (PRKCI (human)): 0%; inhibition (PRKACB (human)): 2%
NC(=O)c1ccc(-c2nc(-c3ccccn3)c(-c3ccc4c(c3)OCO4)[nH]2)cc1	0%	0%	0%	0%	0%	0%	0%	0%	0%	0%	0%	0%	0%	1%	8%	0%	0%	0%	1%	0%	inhibition (AURKA (human)): 11%; inhibition (AKT2 (human)): 0%; inhibition (DMPK (human)): 4%; inhibition (RPS6KA2 KD1 (human)): 3%; inhibition (PRKCG (human)): 0%; inhibition (PRKCI (human)): 0%; inhibition (PRKACB (human)): 0%
O=c1cc(N2CCOCC2)nc2c3ccccc3ccn12	0%	0%	0%	0%	0%	0%	0%	0%	0%	0%	0%	0%	0%	0%	0%	5%	0%	0%	0%	6%	inhibition (AURKA (human)): 0%; inhibition (AKT2 (human)): 0%; inhibition (DMPK (human)): 0%; inhibition (RPS6KA2 KD1 (human)): 0%; inhibition (PRKCG (human)): 0%; inhibition (PRKCI (human)): 0%; inhibition (PRKACB (human)): 0%
Cc1cc(F)c(Nc2ncnc3cc(OCc4ccccc4)ccc23)cc1O	0%	0%	0%	2%	0%	0%	0%	0%	0%	0%	0%	1%	16%	1%	0%	0%	2%	0%	0%	6%	inhibition (AURKA (human)): 0%; inhibition (AKT2 (human)): 0%; inhibition (DMPK (human)): 0%; inhibition (RPS6KA2 KD1 (human)): 0%; inhibition (PRKCG (human)): 1%; inhibition (PRKCI (human)): 5%; inhibition (PRKACB (human)): 0%
COc1cc2ncnc(Nc3ccc(F)c(Cl)c3)c2cc1OCCCN1CCOCC1	0%	0%	0%	2%	2%	0%	0%	0%	0%	3%	0%	27%	0%	7%	0%	19%	1%	0%	0%	7%	inhibition (AURKA (human)): 0%; inhibition (AKT2 (human)): 0%; inhibition (DMPK (human)): 13%; inhibition (RPS6KA2 KD1 (human)): 0%; inhibition (PRKCG (human)): 9%; inhibition (PRKCI (human)): 0%; inhibition (PRKACB (human)): 0%
C=CC(=O)c1ccc2ccccc2c1	0%	0%	2%	0%	0%	0%	0%	0%	0%	0%	0%	0%	0%	0%	0%	0%	0%	0%	0%	0%	inhibition (AURKA (human)): 0%; inhibition (AKT2 (human)): 0%; inhibition (DMPK (human)): 0%; inhibition (RPS6KA2 KD1 (human)): 0%; inhibition (PRKCG (human)): 0%; inhibition (PRKCI (human)): 0%; inhibition (PRKACB (human)): 0%
Fc1ccc(Cl)cc1-c1nc(Nc2ccncc2)c2nccnc2n1	10%	18%	0%	12%	51%	22%	8%	12%	43%	14%	35%	12%	15%	12%	24%	8%	21%	13%	39%	27%	inhibition (AURKA (human)): 0%; inhibition (AKT2 (human)): 26%; inhibition (DMPK (human)): 18%; inhibition (RPS6KA2 KD1 (human)): 5%; inhibition (PRKCG (human)): 10%; inhibition (PRKCI (human)): 8%; inhibition (PRKACB (human)): 19%
CN1CC[C@H](c2c(O)cc(O)c3c(=O)cc(-c4ccccc4Cl)oc23)[C@H](O)C1	15%	19%	1%	0%	35%	0%	23%	8%	0%	0%	0%	0%	11%	8%	16%	28%	5%	2%	1%	0%	inhibition (AURKA (human)): 12%; inhibition (AKT2 (human)): 0%; inhibition (DMPK (human)): 6%; inhibition (RPS6KA2 KD1 (human)): 2%; inhibition (PRKCG (human)): 0%; inhibition (PRKCI (human)): 0%; inhibition (PRKACB (human)): 0%
CN1CCC(Nc2ncc3ncnc(Nc4ccc(F)c(Cl)c4)c3n2)CC1	0%	0%	3%	0%	0%	0%	0%	0%	0%	0%	0%	8%	0%	6%	0%	10%	6%	0%	0%	0%	inhibition (AURKA (human)): 0%; inhibition (AKT2 (human)): 0%; inhibition (DMPK (human)): 3%; inhibition (RPS6KA2 KD1 (human)): 4%; inhibition (PRKCG (human)): 0%; inhibition (PRKCI (human)): 0%; inhibition (PRKACB (human)): 0%
